Where a name gives a salt, the structure may show the parent alone.
Experiments:
Type in all cases: cell-based, mouse
MOR136-1 = assay: High-throughput multiplexed odorant screening (Smell-seq), barcode RNA-seq readout; settings: OR MOR136-1; pair called as hit, FDR=1%
Excerpt: (§1) We subsequently screened 182 odorants at three concentrations in triplicate against the OR cell library, the equivalent of ˜85,000 individual luciferase assays including controls (FIG. 10A, Table 2). Each 96-well plate in the assay contained positive control odorants and solvent DMSO wells for normalization (FIG. 16). We used the EdgeR software package to determine differentially responsive ORs based on a negative binomial model of barcode counts. We found 114 OR-odorant interactions (out of 7,200 possible), 81 of which are novel, and 24 interactions with 15 orphan receptors (FIG. 10C, FIG. 17 and Supplementary Table 4) (FDR=1%; Benjamini-Hochberg correction). Overall 28 of 39 receptors were activated by at least one odorant, and 68 of 182 odorants activated at least one OR (Table 4). We chose 37 interactions of at least 1.2 fold induction to test individually with a previously developed transient OR assay that has several important differences (FIG. 18). Of the 28 interactions called as hits at an FDR of 1%, 21 of them replicated in this orthogonal system (FIG. 17). […] Conversely, we also detect 14 interactions that this previous study tested, but called negative.

MOR139-1 = assay: as above; settings: OR MOR139-1; pair called as hit, FDR=1%
Excerpt: as §1

MOR131-1 = assay: as above; settings: OR MOR131-1; pair called as hit, FDR=1%
Excerpt: as §1

MOR13-1 = assay: High-throughput multiplexed odorant screening (Smell-seq), 96-well, barcode RNA-seq readout; settings: OR MOR13-1; pair called as hit, FDR=1%
Excerpt: We find that chemicals with similar features activate similar sets of ORs, including those receptors we deorphanize in this study. For example, the previously orphan MOR13-1 is activated by four chemicals with polar groups attached, in three cases, to stiff non-rotatable scaffolds. Another example is, MOR19-1, which has clear affinity for the salicylate functional group. To better understand how chemical similarity relates to receptor activation without relying on incomplete and sometimes arbitrary chemical descriptors, we used a previously validated computational autoencoder to represent each chemical in a ˜292 dimensional latent space, allowing nearly lossless compression of chemical structure (Data not shown). We find chemicals that activate the same OR tend to cluster distinctly (FIG. 10D, FIG. 20). […] Many, but not all of the receptors. […] Understanding the space of chemicals that activates each OR establishes the groundwork for prediction of novel odorant-OR interactions.
(§2) 10. High-Throughput Odorant Screening
(§3) The OR library cell line was thawed from a liquid nitrogen frozen stock into a T-225 flask (Corning) three days before seeding into a 96-well plate for screening. The library was seeded at 6,666 cells per well in 100 ul of DMEM. 24 hours later a working concentration of 1 ug/ml of doxycycline in DMEM was added to the wells. 24 hours after induction, the media was removed from each plate and replaced with 25 ul of odorant diluted in OptiMEM. Each odor was added at three different concentrations (10 uM, 100 uM, 1 mM) in triplicate with the same amount of final DMSO (1%). Each plate contained two control odorants at a three concentration (10 uM, 100 uM, 1 mM) in triplicate and three wells containing 1% DMSO dissolved in media. The library was incubated with odorants for three hours in a cell culture incubator with the lids removed.
After odor incubation, media was pipetted out of the plates and cells were lysed by adding 25 uL of ice-cold Cells-to-cDNA II Lysis Buffer (Thermo Fisher) and pipetting up and down to homogenize and lyse cells. The lysate was then heated to 75° C. for 15 minutes and flash frozen with liquid nitrogen and kept at −80 C until further processing. Then 0.5 uL DNase I (New England Biolabs) was added to lysate, and incubated at 37° C. for 15 minutes. […]
For each batch, qPCR was performed on a few wells (OL005F and OL013) with SYBR FAST qPCR Mastermix to determine the number of cycles necessary for PCR based library preparation. […] Library concentrations were quantified using a Tape Station 2200 and a Qubit (Thermo Fisher). The libraries were sequenced with two index reads and a single end 75-bp read on a NextSeq 500 in high-output mode (Illumina). […]

MOR112-1 = assay: High-throughput multiplexed odorant screening (Smell-seq), barcode RNA-seq readout; settings: OR MOR112-1; pair called as hit, FDR=1%
Excerpt: as §1

Olfr62 = assay: as above; settings: OR Olfr62; pair called as hit, FDR=1%
Excerpt: as §1

MOR142-1 = assay: as above; settings: OR MOR142-1; pair called as hit, FDR=1%
Excerpt: as §1

MOR119-1 = assay: as above; settings: OR MOR119-1; pair called as hit, FDR=1%
Excerpt: as §1

MOR5-1 = assay: High-throughput multiplexed odorant screening (Smell-seq), 96-well, barcode RNA-seq readout; settings: OR MOR5-1; pair called as hit, FDR=1%
Experimental: as §2, §3
(§4) After odor incubation, media was pipetted out of the plates and cells were lysed by adding 25 uL of ice-cold Cells-to-cDNA II Lysis Buffer (Thermo Fisher) and pipetting up and down to homogenize and lyse cells. The lysate was then heated to 75° C. for 15 minutes and flash frozen with liquid nitrogen and kept at −80 C until further processing. Then 0.5 uL DNase I (New England Biolabs) was added to lysate, and incubated at 37° C. for 15 minutes. To anneal the RT primer, 5 ul of lysate from each well was combined with 2.5 ul of 10 mM dNTPs (New England Biosciences), 1 ul of 2 uM gene specific RT primer (OL003), and 1.5 ul of H2O. The reaction was heated to 65° C. for 5 min and cooled back down to 0° C. After annealing, 1 ul of M-MuLV Reverse Transcriptase (Enzymatics), 1 ul of buffer, and 0.25 ul of RNase Inhibitor (Enzymatics) were added to each reaction. Reactions were incubated at 42° C. for 60 min and the RT enzyme was heat inactivated at 85° C. for 10 min.
For each batch, qPCR was performed on a few wells (OL005F and OL013) with SYBR FAST qPCR Mastermix to determine the number of cycles necessary for PCR based library preparation. The reaction and cycling conditions are optimized as follows: 95° C. for 3 minutes, 40 cycles of 95° C. for 3 seconds and 60° C. for 20 seconds. After qPCR, 5 ul of each RT reaction was combined with 0.4 ul of 10 uM primers containing sequencing adaptors (OL005F and OL013), 10 ul of NEB-Next Q5 Mastermix (New England Biosciences) and 4.2 ul H2O, the PCR was carried out according to the manufacturer's protocol. The forward primer contains the P7 adaptor sequence and an index identifying the well in the assay and the reverse primer contains the P5 adaptor sequence and an index identifying the plate in the assay. PCR products were pooled together by plate and purified with the DNA Clean and Concentrator Kit. Library concentrations were quantified using a Tape Station 2200 and a Qubit (Thermo Fisher). The libraries were sequenced with two index reads and a single end 75-bp read on a NextSeq 500 in high-output mode (Illumina).
11. Analysis of Next-Generation Sequencing Data
Samples were identified via indexing by their PCR indexes adapters unique for each well (5′ end) and unique for each plate (3′ end). The well barcodes followed the 7 bp indexing scheme in (Illumina Sequencing Library Preparation for Highly Multiplexed Target Capture and Sequencing Matthias Meyer, Martin Kircher, Cold Spring Harb Protoc; 2010; doi:10.1101/pdb.prot5448). The plate indexing scheme followed the Illumina indexing scheme. Sequencing data was demultiplexed and 15 bp barcode sequences were counted with only exact matches by custom python and bash scripts.
12. Statistical Methods for Calling Hits
Count data was then analyzed using the differential expression package EdgeR. To filter out ORs with low representation, we set a cutoff that an OR had to contain at least 0.5% of the reads from more than 399 of the 1954 test samples. This filtered out 3 of 42 ORs which were underrepresented in the cell library (MOR172-1, MOR176-1 and MOR181-1). […]

MOR23-1 = assay: High-throughput multiplexed odorant screening (Smell-seq), barcode RNA-seq readout; settings: OR MOR23-1; pair called as hit, FDR=1%
Excerpt: as §1

MOR4-1 = assay: as above; settings: OR MOR4-1; pair called as hit, FDR=1%
Excerpt: as §1

MOR120-1 = assay: as above; settings: OR MOR120-1; pair called as hit, FDR=1%
Excerpt: as §1

MOR165-1 = assay: as above; settings: OR MOR165-1; pair called as hit, FDR=1%
Excerpt: as §1

MOR19-1 [1] = assay: High-throughput multiplexed odorant screening (Smell-seq), 96-well, barcode RNA-seq readout; settings: for OR-odorant interaction called as hit in the multiplexed screen: MOR19-1, odorant at 10 uM, 100 uM, 1 mM in triplicate, 3 hours, FDR=1% (Benjamini-Hochberg); for Minimum Activating Concentration: OR MOR 19-1, pair called as hit, FDR=1%
Excerpt: as §1, §2, §3
as §4, with “After annealing, 1 ul of M-MuLV Reverse Transcriptase (Enzymatics), 1 ul of buffer, and 0.25 ul of RNase Inhibitor (Enzymatics) were added to each reaction. Reactions were incubated at 42° C. for 60 min and the RT enzyme was heat inactivated at 85° C. for 10 min.” left out

MOR19-1 [2] = assay: Odorant-receptor activation luciferase assay (transient), orthogonal follow-up; settings: interactions called as hits at an FDR of 1% tested individually
Excerpt: We subsequently screened 182 odorants at three concentrations in triplicate against the OR cell library, the equivalent of ˜85,000 individual luciferase assays including controls (FIG. 10A, Table 2). Each 96-well plate in the assay contained positive control odorants and solvent DMSO wells for normalization (FIG. 16). We used the EdgeR software package to determine differentially responsive ORs based on a negative binomial model of barcode counts. We found 114 OR-odorant interactions (out of 7,200 possible), 81 of which are novel, and 24 interactions with 15 orphan receptors (FIG. 10C, FIG. 17 and Supplementary Table 4) (FDR=1%; Benjamini-Hochberg correction). Overall 28 of 39 receptors were activated by at least one odorant, and 68 of 182 odorants activated at least one OR (Table 4). We chose 37 interactions of at least 1.2 fold induction to test individually with a previously developed transient OR assay that has several important differences (FIG. 18). […]
The Dual-Glo Luciferase Assay System (Promega) was used to measure OR-odorant responses as previously described (Zhuang and Matsunami 2008). […] Luminescence was measured using the M1000 plate reader (Tecan). All luminescence values were normalized to Renilla luciferase activity to control for transfection efficiency in a given well. Data were analyzed with Microsoft Excel and R.

C=C(C)C1CCC(C)C(O)C1 (single isomer, unassigned; (+)) [(+)-Dihydrocarveol]
Minimum Activating Concentration (MOR136-1): 1000 µM

C=C(C)C1CCC(C)C(O)C1 (single isomer, unassigned; (-)) [(−)-Dihydrocarveol]
Minimum Activating Concentration (MOR136-1): 1000 µM | Minimum Activating Concentration (MOR139-1): 1000 µM

C=C(C)C1CC=C(C=O)CC1 (single isomer, unassigned; (-)) [(−)-Perillaaldehyde]
Minimum Activating Concentration (MOR131-1): 1000 µM

CCCCCCO [1-hexanol]
Minimum Activating Concentration (MOR131-1): 1000 µM

CCc1ccccc1O [2-Ethylphenol]
Minimum Activating Concentration (MOR136-1): 100 µM

CCC(=O)C(=O)CC [3,4-Hexanedione]
Minimum Activating Concentration (MOR131-1): 1000 µM

CC12CCC(CC1=O)C2(C)C (stereo not drawn) [(+)-Camphor]
Minimum Activating Concentration (MOR136-1): 100 µM

O=Cc1ccccc1 [Benzaldehyde]
Minimum Activating Concentration (MOR13-1): 1000 µM | Minimum Activating Concentration (MOR112-1): 1000 µM | Minimum Activating Concentration (Olfr62): 1000 µM

Cc1occc1SSc1ccoc1C [Bis(2-methyl-3-furyl)disulphide)]
Minimum Activating Concentration (MOR142-1): 1000 µM

O=C(O)C1CCC1 [Cyclobutanecarboxylic acid]
Minimum Activating Concentration (MOR13-1): 1000 µM

CSSCc1ccco1 [Furfuryl methyl disulfide]
Minimum Activating Concentration (MOR119-1): 1000 µM

CCCCCC(=O)O [Hexanoic Acid]
Minimum Activating Concentration (MOR5-1): 1000 µM | Minimum Activating Concentration (MOR23-1): 1000 µM | Minimum Activating Concentration (MOR4-1): 1000 µM

CC(C)(O)CCCC1=CCC(C=O)CC1 (stereo not shown) [Lyral]
Minimum Activating Concentration (MOR120-1): 1000 µM

CCCCCCCCCS [Nonanethiol]
Minimum Activating Concentration (MOR120-1): 1000 µM

CCCCCCCCOC=O [Octyl formate]
Minimum Activating Concentration (MOR165-1): 1000 µM

CCCCC(=O)O [Pentanoic Acid]
Minimum Activating Concentration (MOR13-1): 1000 µM | Minimum Activating Concentration (MOR4-1): 1000 µM

O=C(OCc1ccccc1)c1ccccc1O [benzyl salicylate]
OR-odorant interaction called as hit in the multiplexed screen (MOR19-1 [1]): hits | Minimum Activating Concentration (MOR19-1 [1]): 10 µM | replication of the hit in the orthogonal transient OR luciferase assay (MOR19-1 [2]): did not replicate

COC(=O)c1ccccc1O [methyl salicylate]
OR-odorant interaction called as hit in the multiplexed screen (MOR19-1 [1]): hits | Minimum Activating Concentration (MOR19-1 [1]): 1000 µM | replication of the hit in the orthogonal transient OR luciferase assay (MOR19-1 [2]): did not replicate

CCCCCCCCCCOC(C)=O [n-Decyl acetate]
Minimum Activating Concentration (MOR119-1): 100 µM

C/C=C(\C)C=O [trans-2-Methyl-2-butenal (2MB)]
Minimum Activating Concentration (MOR13-1): 1000 µM

decanedioic acid (sebacic acid)
Minimum Activating Concentration (MOR165-1): 1000 µM

From patent publication US20200255844A1, “MULTIPLEXED RECEPTOR-LIGAND INTERACTION SCREENS” (THE REGENTS OF THE UNIVERSITY OF CALIFORNIA, priority 2017, published 2020)
